As usually defined, the half-life is the time needed for the level to fall by half in the phase considered. As a reminder, the logP is the decadic logarithm of the partition coefficient of the neutral form, usually between octanol and water. A low value points to a more hydrophilic compound. As a reminder, the solubility (thermodynamic) is solubility found after equilibrating the solid with the medium. In general, bioavailability refers to dose-corrected exposure relative to a reference, in per cent. Higher therefore signals good availability.

Each structure is given as a SMILES string. Converted amounts (≈) assume the structure as drawn.

Here are results for 4 compounds from ChEMBL document CHEMBL5608185, “Design, synthesis and evaluation of carbamate-bridged amino acid prodrugs of cycloicaritin with improved antitumor activity, aqueous solubility and phase II metabolic stability” (Eur J Med Chem, 2024).

The nature of data set [1]: Chemical stability of the compound assessed as half life at pH 4.5 by HPLC analysis. It is filed as physicochemical. The settings on record: buffer.
A short description of data set [2]: Stability in Sprague-Dawley rat liver homogenates assessed as half life at pH 7.4 by HPLC analysis. It is filed as ADME, tissue-based.
Data set [3] can be described thus: Drug uptake in human Caco-2 cells at 5 uM at pH 7.4 incubated for 10 mins by HPLC-MS/MS analysis. It counts as ADME, cell-based. The settings on record: caco-2, pH 7.4, 10 min.
Data set [4] is described as follows: Stability in rat liver microsomes assessed as parent compound remaining at 10 uM measured after 70 mins by HPLC-UV analysis. It counts as ADME, Microsome. The note with it: read-out: Stability.
Data set [5] is described as follows: Octanol/water partition coefficient, logP of the compound incubated for 72 hrs by HPLC-MS/MS analysis. It is filed as physicochemical.
Data set [6] in a line: Chemical stability of the compound in simulated intestinal fluid assessed as half life by HPLC analysis. It counts as ADME, physicochemical.
Data set [7] can be described thus: Drug uptake in human Caco-2 cells at 5 uM incubated for 10 mins in presence of Estrone-3-sulfate by HPLC-MS/MS analysis. It counts as ADME, cell-based. The settings on record: caco-2, 10 min.
Data set [8] in a line: Stability at phase II in rat liver microsomes assessed as half life at 10 uM measured every 10 mins for 70 mins by HPLC-UV analysis. It is filed as ADME, Microsome. Background: Liver microsomes are a subcellular fraction often used to study metabolism.
Data set [9] can be described thus: Chemical stability of the compound in simulated gastric fluid assessed as half life by HPLC analysis. It counts as ADME, physicochemical.
Data set [10] is described as follows: Stability in Sprague-Dawley rat intestine homogenates assessed as half life at pH 7.4 by HPLC analysis. It is filed as ADME, tissue-based.
Data set [11] is described as follows: Drug uptake in human Caco-2 cells over 1 to 100 uM incubated for 10 mins by HPLC-MS/MS analysis. It is filed as ADME, cell-based. The note with it: caco-2, 10 min, dose 1-100 µM.
Data set [12] is described as follows: Chemical stability of the compound assessed as half life at pH 7.4 by HPLC analysis. It is filed as physicochemical. The settings on record: buffer.
The nature of data set [13]: Chemical stability of the compound assessed as half life at pH 6.8 by HPLC analysis. It counts as physicochemical. The note with it: buffer.
Data set [14] in a line: Drug uptake in human Caco-2 cells at 5 uM incubated for 10 mins in presence of fexofenadine by HPLC-MS/MS analysis. The note with it: caco-2, 10 min. It counts as ADME, cell-based.
Data set [15] can be described thus: Stability in Sprague-Dawley rat blood homogenates assessed as half life at pH 7.4 by HPLC analysis. It counts as ADME, tissue-based.
A short description of data set [16]: Aqueous solubility of the compound incubated for 72 hrs by shake-flask method. It counts as physicochemical. The note with it: buffer.
The nature of data set [17]: Chemical stability of the compound assessed as half life at pH 1.2 by HPLC analysis. It counts as physicochemical. The settings on record: buffer.
Data set [18] is described as follows: Oral bioavailability in rat. It counts as ADME, organism-based. The note with it: in vivo.

Turning to `CC[C@H](C)[C@H](NC(=O)Oc1c(-c2ccc(OC)cc2)oc2c3c(cc(O)c2c1=O)OC(C)(C)CC3)C(=O)O`, the half-life in data set [1] was more than 12 h; in data set [2] it was 4.62 h; in data set [6] it was more than 12 h; in [9] it was more than 12 h; in [10] it was 4.71 h; in [12] it was 4.97 h. Also, the figures for the half-life in data set [13], in [15] and in [17] were more than 12 h, 0.36 h and more than 12 h, respectively. The Drug uptake result in data set [3], in data set [7], in data set [11] and in [14] was “Not Active” in each case. Also, the remaining at 1.167 h, 10 µM in data set [4] was 76%. This compound displayed a log partition coefficient (logP) at 72 h in data set [5] of 2.69. Also, in [8], the half-life at 10 µM is more than 1.16 h. Besides, the thermodynamic solubility at 72 h in data set [16] came out at 11.4 µM (≈ 6.01 µg/mL).

In the case of `COc1ccc(-c2oc3c(CC=C(C)C)c(O)cc(O)c3c(=O)c2O)cc1` [ICARITIN], the bioavailability in data set [18] is 4.3%.

As to `COc1ccc(-c2oc3c4c(cc(O)c3c(=O)c2OC(=O)NCC(=O)O)OC(C)(C)CC4)cc1`, the half-life in [1] was more than 12 h; in data set [2], 1.96 h; in data set [6], 5.24 h; in data set [9] it was more than 12 h; in [10], 1.89 h; in [12] it was 1.96 h. In addition, the half-life in data set [13] was 5.21 h; in data set [15] it was 0.25 h; in data set [17], more than 12 h. The remaining at 1.167 h, 10 µM in [4] was determined as 76%. Also, the logP at 72 h in data set [5] is 3.66. The half-life at 10 µM in data set [8] was more than 1.16 h. Further, the Drug uptake result in data set [11] is recorded as “Not Active”. In [16], this compound yielded a thermodynamic solubility at 72 h of 3.64 µM (≈ 1.71 µg/mL).

`COc1ccc(-c2oc3c4c(cc(O)c3c(=O)c2OC(=O)N[C@@H](Cc2ccccc2)C(=O)O)OC(C)(C)CC4)cc1`: the half-life was more than 12 h in data set [1]; 6.04 h in [2]; more than 12 h in data set [6]; more than 12 h in data set [9]; 5.85 h in data set [10]; 6.09 h in [12]. In addition, the half-life was more than 12 h in data set [13], 0.45 h in data set [15] and more than 12 h in data set [17]. In addition, in data set [4], the remaining at 1.167 h, 10 µM was 76%. This compound also registered a logP at 72 h in data set [5] of 4.33. The half-life at 10 µM in [8] was more than 1.16 h. The Drug uptake result in [11] is listed as “Not Active”. Moreover, the thermodynamic solubility at 72 h in [16] was 2.68 µM (≈ 1.5 µg/mL).
